According to patent publication US4710505A, “Asymmetric heterocyclic ester derivatives of 1,4-dihydropyridine-3,5-dicarboxylic acids” (Societe de Recherches Industrielles (S.O.R.I.), priority 1985, dated 1987):
Like-named read-outs stand apart in the source and are kept apart here.

Key:
[1] = tested on: rabbit aorta; test: Relaxing effect on isolated rabbit aorta contracted (depolarized) by KCl; details: Oryctolagus cuniculus, read-out: ED50 (dose causing a 50% relaxation of the precontracted arteries)
Experimental: I. RELAXING EFFECT ON ISOLATED RABBIT AORTA CONTRACTED BY KCl
The thoracic aortae of male rabbits are removed, cut into narrow strips and placed under tension in an oxygenated survival medium. The contractions of these arteries, the amplitude of which is measured using a myograph, are induced by a 127 mM solution of KCl [R. Towart et al., Arzneim.-Forsch./Drug Res. 32, 338-346 (1982)]. The compounds studied are dissolved in a mixture of anhydrous ethanol and double distilled water (1:1) v/v, the percentage of ethanol in the baths being less than or equal to 0.3% at the end of the experiment. When the contraction plateau is reached, the compound is added to the medium in increasing doses every 15 minutes.

[2] = tested on: spontaneously hypertensive rats; test: Antihypertensive activity in spontaneously hypertensive rats, oral administration; type: in vivo; details: for change in vivo at 30 mg/kg / change in vivo at 10 mg/kg: Rattus norvegicus
Experimental: Spontaneously hypertensive rats aged between 16 and 20 weeks are used. The systolic pressure is measured by plethysmography and the heart rate is obtained from the pressure graph. The compounds studied are administered orally.

[3] = in vivo; details: rat, intravenous, male Wistar rats weighing 300 g
Experimental: The LD50 was determined by intravenous administration to male Wistar rats weighing 300 g.

[4] = tested on: spontaneously hypertensive rats; test: Antihypertensive activity in spontaneously hypertensive rats, intravenous administration; type: in vivo; details: single i.v. dose; Ex. 2 30, Ex. 7 100, Ex. 8 300, Ex. 11 30 and 100 μg/kg; versus nicardipine and nifedipine
Excerpt: 2. Intravenous administration
Spontaneously hypertensive rats aged between 16 and 20 weeks are used. They are anesthetized with diethyl ether, a cannula is inserted into the caudal artery to measure the arterial pressure and a catheter is inserted into the right jugular vein to administer the compounds as described previously (L. S. Watson and L. T. Ludden, New Antihypertensive Drugs, pages 87-96, Spectrum Publication, Inc., 1976).
Each curve C relates to the control group receiving only the vehicle and each curve T relates to the treated group [n (number of animals per group)=4-7]. The said groups are compared either by analysis of variance, if the variances are homogenous (Bartlett's homocedasticity test), or by Kruskall-Wallis's non-parametric test (the statistically significant results being represented as follows:
FIGS. 1-6 relate to the variation in systolic pressure, expressed in mm Hg (1 mm Hg corresponds approximately to 1.333×10^2 Pa), as a function of time, expressed in minutes, and FIGS. 1a-6a relate to the variation in diastolic pressure, also expressed in mm Hg, as a function of time, expressed in minutes, for the treated groups (curves T) compared with the corresponding control groups (curves C), the doses of products administered being as follows:
FIGS. 2 and 2a: nicardipine at 30 μg/kg i.v.,
FIGS. 3 and 3a: Example 2 at 30 μg/kg i.v.,
FIGS. 4 and 4a: Example 7 at 100 μg/kg i.v.,
FIGS. 5 and 5a: Example 8 at 300 μg/kg i.v., and
FIGS. 6 and 6a: Example 11 at 30 and 100 μg/kg i.v. (curves T1 and T2).

[5] = tested on: anesthetized dogs; test: Hemodynamic effects on anesthetized dogs, intraduodenal administration; type: in vivo, Mongrel dogs; details: for % variation T.P.R. (total peripheral resistances) / duration of the effect, T.P.R. (total peripheral resistances): calculated
Experimental: III. HEMODYNAMIC EFFECTS ON ANESTHETIZED DOGS Mongrel dogs are anesthetized with pentobarbital sodium (25 mg/kg i.v.). Each animal is placed under artificial respiration and a catheter is introduced into the aorta to measure the arterial pressure. The outputs of the aorta (O. Aor.), right femoral artery (O. Fem.) and left coronary artery (descending part) (O. Cor.) are measured continuously by means of electromagnetic rings. The total peripheral resistances (T.P.R.) are also calculated. […]

[6] = rabbit aorta depolarized by 127 mM KCl
[7] = 30 mg/kg, read-out: % variation Heart rate
[8] = 30 mg/kg, read-out: % variation Systolic pressure
[9] = 0.5 mg/kg, versus nicardipine and nifedipine

Row | SMILES | EC50 [1, 6] [nM] | duration of the effect, Systolic pressure ([2]; 30 mg/kg) [h] | change in vivo at 30 mg/kg [2, 7] [%] | LD50 [3] [mg/kg] | change in vivo at 30 mg/kg [2, 8] [%] | other results
1 | COC(=O)C1=C(C)NC(C)=C(C(=O)OCCC2COC(C)(C)O2)C1c1cccc([N+](=O)[O-])c1 (racemic) [Example 4, methyl 2-[(2,2-dimethyl-1,3-dioxolan-4-yl)ethyl]1,4-dihydro-2,6-dimethyl-4-(3-nitrophenyl)pyridine-3,5-dicarboxylate] | 32 |  |  |  |  | 
2 | COC(=O)C1=C(C)NC(C)=C(C(=O)OCC2COC(C(F)(F)F)(C(F)(F)F)O2)C1c1cccc([N+](=O)[O-])c1 (centres unmarked) [Example 13] | > 5000 | > 24 | 25 |  |  | 
3 | COC(=O)C1=C(C)NC(C)=C(C(=O)OCC2COCO2)C1c1cccc([N+](=O)[O-])c1 (racemic) [Example 3] | 43 |  |  |  |  | 
4 | COC(=O)C1=C(C)NC(C)=C(C(=O)OCC2COC(c3ccccc3)(C(F)(F)F)O2)C1c1cccc([N+](=O)[O-])c1 (centres unmarked) [Example 12] | 5000 |  |  |  |  | duration of the effect, Systolic pressure ([2]; 10 mg/kg): > 24 h; change in vivo at 10 mg/kg ([2]; 10 mg/kg, read-out: % variation Heart rate): 31.2%; change in vivo at 10 mg/kg ([2]; 10 mg/kg, read-out: % variation Systolic pressure): -41.4 ± 10%
5 | COC(=O)C1=C(C)NC(C)=C(C(=O)OCC2COC(C)(c3ccccc3)O2)C1c1cccc([N+](=O)[O-])c1 (racemic) [Example 7] |  | > 24 | 36.4 | 17.8 | -40.5 ± 5.1 | duration of the antihypertensive effect (in words) [4]: notably longer than that of nicardipine and nifedipine
6 | COC(=O)C1=C(C)NC(C)=C(C(=O)OC)C1c1ccccc1[N+](=O)[O-] [nifedipine, dimethyl 1,4-dihydro-2,6-dimethyl-4-(2-nitrophenyl)pyridine-3,5-dicarboxylate, reference compound] |  |  | 35.4 |  | -35.2 ± 4.7 | EC50 [1]: 22 nM; % variation D.P. (diastolic pressure) ([5]; 0.35 mg/kg): -44.2%; % variation O. Aor. (output of the aorta) ([5]; 0.35 mg/kg): +20.5%; % variation O. Cor. (output of left coronary artery) ([5]; 0.35 mg/kg): +66.4%; % variation O. Fem. (output of right femoral artery) ([5]; 0.35 mg/kg): +76.4%; duration of the effect, D.P. (diastolic pressure) ([5]; 0.35 mg/kg): 240 min; duration of the effect, O. Fem. (output of right femoral artery) ([5]; 0.35 mg/kg): 10 min; % variation T.P.R. (total peripheral resistances) ([5]; 0.35 mg/kg): -48.6%; duration of the effect, T.P.R. (total peripheral resistances) ([5]; 0.35 mg/kg): 180 min
7 | COC(=O)C1=C(C)NC(C)=C(C(=O)OCC2(C)OCCO2)C1c1cccc([N+](=O)[O-])c1 (centres unmarked) [CP 1, methyl 2,2ethylenedioxypropyl 2,6dimethyl-4-(3-nitrophenyl)-1,4-dihydropyridine-3,5-dicarboxylate, reference compound] | 250 | 0 | 0 |  | -11.6 ± 6 | 
8 | COC(=O)C1=C(C)NC(C)=C(C(=O)OCC2CSC(C)(C)O2)C1c1cccc([N+](=O)[O-])c1 (racemic) [Example 6] | 35 |  | 21.4 | 34.2 | -35.1 ± 9.2 | 
9 | COC(=O)C1=C(C)NC(C)=C(C(=O)OCCN(C)Cc2ccccc2)C1c1cccc([N+](=O)[O-])c1 (centres unmarked) [nicardipine, methyl 2-(N-methyl-N-benzylamino)ethyl 1,4-dihydro-2,6-dimethyl-4-(3-nitrophenyl)pyridine-3,5-dicarboxylate, reference compound] | 26 |  | 21.3 | 11.8 | -46.2 ± 6.8 | % variation D.P. (diastolic pressure) ([5]; 0.5 mg/kg): -34.5%; % variation O. Aor. (output of the aorta) ([5]; 0.5 mg/kg): +25%; % variation O. Cor. (output of left coronary artery) ([5]; 0.5 mg/kg): +62.2%; % variation O. Fem. (output of right femoral artery) ([5]; 0.5 mg/kg): +70.6%; duration of the effect, D.P. (diastolic pressure) ([5]; 0.5 mg/kg): 150 min; % variation T.P.R. (total peripheral resistances) ([5]; 0.5 mg/kg): -40.5%; duration of the effect, T.P.R. (total peripheral resistances) ([5]; 0.5 mg/kg): 90 min
10 | COC(=O)C1=C(C)NC(C)=C(C(=O)OCC2COC(C)(C)O2)C1c1cccc([N+](=O)[O-])c1 (centres unmarked) [Example 1, methyl (2,2-dimethyl-1,3-dioxolan-4-yl)methyl 1,4-dihydro-2,6-dimethyl-4-(3-nitrophenyl)pyridine-3,5-dicarboxylate] | 31 |  | 16.4 | 22.5 | -28.4 ± 7.3 | % variation D.P. (diastolic pressure) ([5]; 0.5 mg/kg): -42.6%; % variation O. Aor. (output of the aorta) ([5]; 0.5 mg/kg): +124%; % variation O. Cor. (output of left coronary artery) ([5]; 0.5 mg/kg): +73.6%; % variation O. Fem. (output of right femoral artery) ([5]; 0.5 mg/kg): +114%; duration of the effect, D.P. (diastolic pressure) ([5]; 0.5 mg/kg): 120 min; duration of the effect, O. Aor. (output of the aorta) ([5]; 0.5 mg/kg): 120 min; duration of the effect, O. Fem. (output of right femoral artery) ([5]; 0.5 mg/kg): 270 min; % variation T.P.R. (total peripheral resistances) ([5]; 0.5 mg/kg): -65%; duration of the effect, T.P.R. (total peripheral resistances) ([5]; 0.5 mg/kg): 300 min; cardiac, femoral and coronary outputs (in words) [5, 9]: increased for a longer time and to a greater extent; drop in total peripheral resistances (in words) [5, 9]: greater drop in total peripheral resistances than nicardipine and nifedipine; duration of drop in total peripheral resistances (in words) [5, 9]: considerably longer
11 | COC(=O)C1=C(C)NC(C)=C(C(=O)OCC2COC(C)(c3ccc(Cl)cc3Cl)O2)C1c1cccc([N+](=O)[O-])c1 (racemic) [Example 11] | > 5000 | > 24 | 34 | 38.9 | -54 ± 5.9 | duration of the antihypertensive effect (in words) [4]: notably longer than that of nicardipine and nifedipine
12 | COC(=O)C1=C(C)NC(C)=C(C(=O)OCC2COC(c3ccccc3)(c3ccccc3)O2)C1c1cccc([N+](=O)[O-])c1 (racemic) [Example 8] | > 5000 | > 24 | 12.4 | 44.4 | -37 ± 9 | duration of the antihypertensive effect (in words) [4]: notably longer than that of nicardipine and nifedipine
13 | COC(=O)C1=C(C)NC(C)=C(C(=O)OCC2COC(c3ccccc3)O2)C1c1cccc([N+](=O)[O-])c1 (centres unmarked) [Example 14] | > 5000 | > 24 | 19.9 |  | -58.4 ± 32.9 | duration of the effect, Heart rate ([2]; 30 mg/kg): > 24 h
14 | COC(=O)C1=C(C)NC(C)=C(C(=O)OCC2COC3(CCCC3)O2)C1c1cccc([N+](=O)[O-])c1 (centres unmarked) [Example 5, methyl (1,4-dioxaspiro[4,4]nonan-2-yl)methyl 1,4-dihydro-2,6-dimethyl-4-(3-nitrophenyl)pyridine-3,5-dicarboxylate] |  |  | 19.3 |  | -40.4 ± 9.4 | duration of the effect, Heart rate ([2]; 30 mg/kg): 4 h
